In the supplement of paper PMC7600603:

Key:
Settings in all cases: 72 h; CellTox Green cytotoxicity
DLD1 NRF2-WT [1] = test: drug sensitivity score (DSS) cytotoxicity (DSS score); higher = more toxic; extreme values may be limits of the assay
Outline: (§1)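 Isogenic DLD1 colorectal cancer cells, either NRF2 wild-type or CRISPR gain-of-function, were grown in DMEM with 10% FBS. They were exposed in 384-well plates to library compounds at 5 concentrations spanning a 10,000-fold range. After 72 h, cytotoxicity was read by CellTox Green on a Pherastar FS reader and normalised to vehicle wells and 100-μM positive-control wells. TC50 and drug sensitivity score (a normalised area under the curve) came from logistic dose-response fits.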

DLD1 NRF2-GOF [2] = test: as above
Outline: as §1

DLD1 NRF2-WT [3] = test: TC50 cytotoxicity; higher = less toxic
Outline: as §1

DLD1 NRF2-GOF [4] = test: TC50 cytotoxicity; higher = less toxic
Outline: as §1

Compound	drug sensitivity score (DLD1 NRF2-WT [1])	drug sensitivity score (DLD1 NRF2-GOF [2])	TC50 cytotoxicity (DLD1 NRF2-WT [3])	TC50 cytotoxicity (DLD1 NRF2-GOF [4])
CNS(=O)(=O)Nc1nccc(Cc2c(C)c3ccc(Oc4ncccn4)cc3oc2=O)c1F	0	0	> 1 µM	> 1 µM
COc1ccc(Cn2ccc3ccc(C(=O)NO)cc32)cc1	0	0	> 10 µM	> 10 µM
Cc1c(-c2ccc(N3CCc4cccc(C(=O)Nc5nc6ccccc6s5)c4C3)nc2C(=O)O)cnn1CC12CC3CC(CC(C3)C1)C2		0		> 1 µM
Cn1cc(-c2ccc(F)c(C(F)(F)F)c2)nc1C1CCN(c2ncnc3[nH]ncc23)CC1	0	0	> 10 µM	> 10 µM
CC(C)[C@@H](CS(=O)(=O)C(C)C)N1C(=O)[C@@](C)(CC(=O)O)C[C@H](c2cccc(Cl)c2)[C@H]1c1ccc(Cl)cc1 [AMG-232]	0	0	> 10 µM	> 10 µM
CN(C)CCCOc1ccc(-c2ccc3ncc4c(c3c2)n(C2CCOCC2)c(=O)n4C)cn1 [AZD0156]	0	0	> 1 µM	> 1 µM
Cc1cc(Nc2nc(N[C@@H](C)c3ncc(F)cn3)ncc2Cl)[nH]n1 [AZD1480]	0	0	> 1 µM	> 1 µM
COc1cc2ncnc(Nc3cccc(Cl)c3F)c2cc1OC(=O)N1CCN(C)C[C@H]1C [AZD3759]	0	0	> 1 µM	> 1 µM
N#Cc1ccc2[nH]c(O)c(-c3ccc(CN4CCOCC4)cn3)c2c1 [AZD-1080]	0	0	> 10 µM	> 10 µM
C[C@]12CC[C@H](O)CC1=CC[C@@H]1[C@@H]2CC[C@]2(C)C(c3cccnc3)=CC[C@@H]12 [Abiraterone]	0	0	> 5 µM	> 5 µM
CCN(CC)CCNC(=O)c1c(C)[nH]c(/C=C2\C(=O)Nc3ccc(-c4csc(-c5ccccc5)n4)cc32)c1C [Amcasertib]	0	0	> 10 µM	> 10 µM
CCC1(c2ccc(N)cc2)CCC(=O)NC1=O (centres undefined) [Aminoglutethimide]	0	0	> 10 µM	> 10 µM
N#CC1(c2ccc(NC(=O)c3cccnc3NCc3ccncc3)cc2)CCCC1 [Apatinib]	0	0	> 10 µM	> 10 µM
Nc1nc(Nc2ccc3c(c2)CC[C@@H](N2CCCC2)CC3)nn1-c1cc2c(nn1)-c1ccccc1CCC2 [BGB324]	0	0	> 10 µM	> 10 µM
O=C(Nc1cccc(Nc2ncc(Br)c(NCCc3cnc[nH]3)n2)c1)N1CCCC1 [BX-912]	2.2	2.5	> 10 µM	> 10 µM
Cc1ccc(NC(=O)c2ccc(CN3CC[C@H](N(C)C)C3)c(C(F)(F)F)c2)cc1Nc1nccc(-c2cncnc2)n1 [Bafetinib]	0	0	> 1 µM	> 1 µM
CCS(=O)(=O)N1CC(CC#N)(n2cc(-c3ncnc4[nH]ccc34)cn2)C1 [Baricitinib]	0	0	> 2.5 µM	> 2.5 µM
CC(O)(CS(=O)(=O)c1ccc(F)cc1)C(=O)Nc1ccc(C#N)c(C(F)(F)F)c1 (centres undefined) [Bicalutamide]	0	0	> 10 µM	> 10 µM
Cn1cnc2c(F)c(Nc3ccc(Br)cc3F)c(C(=O)NOCCO)cc21 [Binimetinib]	0	0	> 1 µM	> 1 µM
Cc1sc2c(c1C)C(c1ccc(Cl)cc1)=N[C@@H](CC(=O)Nc1ccc(O)cc1)c1nnc(C)n1-2 [Birabresib]	0	0	> 10 µM	> 10 µM
CCN1C(=O)CNc2ncc(-c3ccc(-c4nc[nH]n4)nc3C)nc21 [CC-115]	1.4	0.1		> 10 µM
O=C(O)CCCCC(CCSCc1ccccc1)SCc1ccccc1 (centres undefined) [CPI-613]	0	0	> 10 µM	> 10 µM
CN(C)c1cc2c(cc1Sc1nc3c(N)nccc3n1CCNCC(C)(C)C)OCO2 [CUDC-305]	0	0	> 10 µM	> 10 µM

Compound	drug sensitivity score (DLD1 NRF2-WT [1])	drug sensitivity score (DLD1 NRF2-GOF [2])	TC50 cytotoxicity (DLD1 NRF2-WT [3])	TC50 cytotoxicity (DLD1 NRF2-GOF [4])
CCCCCOC(=O)Nc1nc(=O)n([C@@H]2O[C@H](C)[C@@H](O)[C@H]2O)cc1F [Capecitabine]	0	0	> 10 µM	> 10 µM
Cc1ccc(-c2cc(C(F)(F)F)nn2-c2ccc(S(N)(=O)=O)cc2)cc1 [Celecoxib]	0	0	> 10 µM	> 10 µM
CC(C)(O)CNc1nc(Nc2ccnc(C(F)(F)F)c2)nc(-c2cccc(C(F)(F)F)n2)n1 [Enasidenib]	0	0	> 10 µM	> 10 µM
CN1CCN(c2ccc(C(=O)Nc3n[nH]c4ccc(Cc5cc(F)cc(F)c5)cc34)c(NC3CCOCC3)c2)CC1 [Entrectinib]	0	0	> 1 µM	> 1 µM
C[C@]12CC[C@@H]3c4ccc(O)cc4C[C@@H](CCCCCCCCC[S+]([O-])CCCC(F)(F)C(F)(F)F)[C@H]3[C@@H]1CC[C@@H]2O (some centres undefined) [Fulvestrant]	0	0	> 1 µM	> 1 µM
Cn1nccc1Nc1nccc(-c2ccn([C@H](CO)c3ccc(Cl)c(F)c3)c(=O)c2)n1 [GDC-0994]	0	0	> 10 µM	> 10 µM
CCCOc1ccn2c(C(C)=O)cc(-c3ccccc3S(C)(=O)=O)c2c1 [GSK2801]	0	0	> 10 µM	> 10 µM
CCN(CC)Cc1ccc2cc(COC(=O)Nc3ccc(C(=O)NO)cc3)ccc2c1 [Givinostat]	1.6	0	0.344 µM	> 1 µM
CN1CC[C@@H](NC(=O)Nc2ccc(C#N)cc2)C[C@@H]1c1nc2ccccc2[nH]1 [Glasdegib]	0	0	> 1 µM	> 1 µM
COCCNCc1ccc(-c2cc3nccc(Oc4ccc(NC(=S)NC(=O)Cc5ccc(F)cc5)cc4F)c3s2)nc1 [Glesatinib]	0	0	> 2.5 µM	> 2.5 µM
COc1cc(C(=O)O)ccc1NC(=O)[C@@H]1N[C@@H](CC(C)(C)C)[C@](C#N)(c2ccc(Cl)cc2F)[C@H]1c1cccc(Cl)c1F [Idasanutlin]	0	0	> 10 µM	> 10 µM
NC(=O)/C(=C/n1cnc(-c2cc(C(F)(F)F)cc(C(F)(F)F)c2)n1)c1cncnc1 [KPT-8602]	0	0	> 10 µM	> 10 µM
Nc1cccc2c1CN(C1CCC(=O)NC1=O)C2=O (centres undefined) [Lenalidomide]	0	0	> 100 µM	> 100 µM
CCNCCS(=O)(=O)NC[C@@]1(c2ccccc2)SC(NC(=O)C(C)(C)C)=NN1C(=O)C(C)(C)C [Litronesib]	0	1.6	> 1 µM	> 1 µM
Nc1nc(OCc2cc(Br)cs2)c2[nH]cnc2n1 [Lomeguatrib]	0	0	> 10 µM	> 10 µM
Cc1c(F)cc(C(=O)NC2CC2)cc1-c1ccc(C(=O)NCC(C)(C)C)cn1 [Losmapimod]	0	0	> 10 µM	> 10 µM
O=C(c1cccc(Cl)c1F)N1CCN(Cc2cccc(Nc3nccs3)n2)CC1 [MK-8745]	2	2.9		1.55 µM
Nc1nc2cc(-c3ccc4ncc(C(=O)N5CCOCC5)n4c3)ccc2o1 [MLN1117]	0	0	> 10 µM	> 10 µM
CNC(=O)[C@@H](NC(=O)[C@H](CC(C)C)[C@H](O)C(=O)NO)C(C)(C)C [Marimastat]	0	0	> 10 µM	> 10 µM
Cc1cc(-c2ncc(CC(=O)Nc3ccc(-c4cnccn4)cn3)cc2C)ccn1 [NVP-LGK974]	0	0	> 10 µM	> 10 µM
COc1nc(N)nc2c1ncn2[C@@H]1O[C@H](CO)[C@@H](O)[C@@H]1O [Nelarabine]	0	0	> 10 µM	> 10 µM
NC(=O)c1cccc2cn(-c3ccc(C4CCCNC4)cc3)nc12 (centres undefined) [Niraparib]	0	0	> 10 µM	> 10 µM
CC(C)C[C@@H](C(=O)N[C@H](C(=O)OC1CCCC1)c1ccccc1)[C@H](O)C(=O)NO [Tosedostat]	4.9	4.6		> 10 µM
